Assay results published in patent US20250205184A1, “COLD COMPRESS SPRAY FOR RELIEVING GOUT AND PREPARATION METHOD THEREOF” (priority 2023, published 2025).

System: ankle joint swelling of rats caused by sodium urate crystals
Assay: Acute plantar/ankle joint swelling of rat caused by sodium urate crystals
Assay type: in vivo
Conditions: X ± SD, n = 9
Procedure: A process of preparing sodium urate crystallization and a sodium urate solution is as follows: 2 g of uric acid are added into 400 mL of boiling water to obtain an uric acid solution; a pH value of the uric acid solution is adjusted to 7.4 by using NaOH (1N) to obtain an adjusted solution; the adjusted solution is heated to a temperature of 95° C. to obtain a heated solution; then the heated solution is cooled and stirred gently at a room temperature to obtain a cooled solution; the cooled solution is allowed to stand for 4-6 hours at 4° C. to precipitate flocculent precipitates; microcrystalline sodium urate is obtained by filtering, and the microcrystalline sodium urate is sterilized at a high temperature of 80° C. 1000 milligrams (mg) of the sodium urate are ground fully to obtain sodium urate powder, and the sodium urate powder is added into 20 mL of sterile physiological saline to prepare a suspension with a concentration of 50 g/L (5%).
A process of grouping and administration is as follows: rats are adaptively fed for 3 days and randomly divided into 7 groups based on body weights. The 7 groups include a model control group, a positive drug indomethacin group, a first group, a second group, and a third group, a first comparison group, and a second comparison group. One hour before inflammation, the positive drug indomethacin group is administered with indomethacin through gavage (10 mL/kg). The first group is immediately administered with the cold compress spray (0.1 mL for each rat) obtained in the embodiment 1 after modeling; the second group is immediately administered with the cold compress spray (0.1 mL for each rat) obtained in the embodiment 2 after modeling; the third group is immediately administered with the cold compress spray (0.1 mL for each rat) obtained in the embodiment 3 after modeling; the first comparison group is immediately administered with the cold compress spray (0.1 mL for each rat) obtained in the comparative embodiment 1 after modeling; the second comparison group is immediately administered with the cold compress spray (0.1 mL for each rat) obtained in the comparative embodiment 2 after modeling; and the model control group is immediately administered with an excipient (0.1 mL for each rat) after modeling. Furthermore, after inflammation, the first group, the second group, the third group, the first comparison group, and the second comparison group are administered with corresponding cold compress sprays again after measurements of joint swelling at 6, 12, and 24 hours.
A process of modeling is as follows: an area around an ankle joint of a right hind limb of each rat is marked with a marker pen, and a joint circumference is measured as a normal value using a plantar volume meter. 0.2 mL of 5% sodium urate suspension are injected (the joint of each rat is extended and a needle is inserted at 45 degrees) into a joint cavity on a dorsal side of the right ankle joint of each rat of each group. Here, the modeling of each group is completed.
Results of joint swelling are as follows: a volume of the right ankle joint of each rat at 6, 12, 24, and 48 hours after inflammation is measured.

## COc1ccc2c(c1)c(CC(=O)O)c(C)n2C(=O)c1ccc(Cl)cc1 [Indomethacin, indomethacin]
Right ankle joint volume 6 h after inflammation
  Volume of after modeling, 6 h: 2.42 ± 0.15 mL
Right ankle joint volume 12 h after inflammation
  Volume of after modeling, 12 h: 2.29 ± 0.30 mL
Right ankle joint volume 24 h after inflammation
  Volume of after modeling, 24 h: 2.18 ± 0.09 mL
Right ankle joint volume 48 h after inflammation
  Volume of after modeling, 48 h: 2.16 ± 0.14 mL
Right ankle joint volume, baseline before sodium urate injection
  Volume before modeling: 2.12 ± 0.21 mL
